Laboratory results reported in US20090074774A1, “Fgfr binding peptides” (priority 2004, published 2009).
“Also recorded” adds a separate entry of the source.

Key:
[1] = tested on: caspase3-like activity in cultures of rat cerebellar granular neurons; experiment: Caspase-3-like activity assay in cerebellar granule neurons; type: cell-based; conditions: monomeric peptides; for apoptosis-associated Caspase-3-like activity: cells in culture medium depleted of KCl (5 mM); for effect on Caspase-3-like activity compared with high KCl (40 mM): culture medium depleted of KCl
Experimental: The effect of the peptide is compared to the effect of high concentration of kCl. *P<0.05, **P<0.01, paired student's t-test
Primary cultures of CGN were prepared as described above and apoptosis in cells was induced as described above.
For the caspase-3 assay, cultured CGN were dislodged, collected by centrifugation and lyzed. Aliquots of lysed cells were used for the assay which was performed according to the manufacturer's instructions (Promega, USA),

[2] = target: T1, recombinant FGFR1 (immobilized FGFR Ig modules 2, 3) (Homo sapiens, UniProt P11362); experiment: Binding of fragments of NCAM F3, 1 to FGFR1 by surface plasmon resonance; conditions: 25° C., pH 7.4
T1 construct: The FGFR Ig modules 2, 3 were immobilized on a sensor chip CM5; made in house; host or cells: Drosophila S2 cells (Invitrogen)
T1 sequence (P11362 150-365 limits assumed): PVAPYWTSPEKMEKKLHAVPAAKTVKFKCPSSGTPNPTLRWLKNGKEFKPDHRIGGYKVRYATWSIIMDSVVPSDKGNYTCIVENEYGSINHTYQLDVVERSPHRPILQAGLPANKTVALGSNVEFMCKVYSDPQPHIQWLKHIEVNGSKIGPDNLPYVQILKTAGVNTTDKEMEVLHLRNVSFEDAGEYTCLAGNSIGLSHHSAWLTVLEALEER
Text: The binding is given as a response difference (Resp. Diff.) between the binding to the sensor chip with the immobilized FGFR1 modules and a blank sensor chip (unspecific binding). Abbreviations: AB-A strand-loop-B strand (corresponds to the ABL peptide of SEQ ID NO: 2); CD-C strand-loop-D strand (corresponds to the CDL peptide of SEQ ID NO: 1); EF-E strand-loop-F strand (corresponds to the EFL peptide of SEQ ID NO: 5); BC-B strand-loop-C strand of F3, 1 module of NCAM; DE-D strand-loop-E strand of F3, 1 module of NCAM; FG-F strand-loop-G strand of F3, 1 module of NCAM.
The FGFR Ig module 3 and modules 2, 3 were expressed in Drosophila S2 cells (Invitrogen, USA) according to the manufacturer's instructions. All the proteins were purified by affinity chromatography using Ni^2+-NTA resin (Qiagen, USA) and/or ion exchange chromatography and gel filtration.
Binding analysis was performed using a BIAcoreX instrument (Biosensor AB) at 25° C. using 10 mM sodium phosphate pH 7.4, 150 mM NaCl as running buffer. The flow-rate was 5 μl/min. Data were analysed by non-linear curve-fitting using the manufacture's software. The FGFR Ig modules 2, 3 were immobilized on a sensor chip CM5 using amine coupling kit (Biosensor AB) as follows: 1) the two halves of the chip (designated Fc1 and Fc2) were activated by 20 μl activation solution; 2) the protein was immobilized on Fc1 using 12 μl 20 μg/ml protein in 10 mM sodium phosphate buffer pH 6.0; 3) Fc1 and Fc2 were blocked by 35 μl blocking solution. Binding of various compounds to the immobilized FGFR modules was studied as follows: A compound was injected simultaneously into Fc1 (with the immobilized FGFR modules) and Fc2 (with nothing immobilized). The curve representing unspecific binding of the compound to the surface of Fc2 was subtracted from the curve representing binding of the protein to the immobilized FGFR modules and the surface of Fc1. The resulting curve was used for analysis. The results of the binding experiments are present on FIG. 4.

[3] = tested on: rat cerebellar granular neurons (CGNs); experiment: Stimulation of neurite outgrowth of cerebellar granule neurons in culture; type: cell-based; conditions: for stimulation of neurite outgrowth: CGNs from 7-day-old rats, peptide treatment 24 h, culture without substrate; for effect of FGFR inhibitor on neurite outgrowth stimulated by EFL: CGNs
Experimental: B. Neurite outgrowth stimulated by EFL is inhibited by SU5402, an inhibitor of fibroblast growth factor receptor 1 (FGFR1). Results from four independent experiments are in all cases expressed as a percentage±SEM, with non-treated control cells set at 100%. *P<0.05, **P<0.01, ***P<0.001, compared with control. Paired student's t-test. For experiments, CGNs from 7-old-day rats were treated with the peptides for 24 hr. The cultures were fixed in 4% paraformaldehyde, followed by blocking with 1% BSA and then immunostained with rabbit anti-rat GAP-43 primary antibodies, and then with secondary Alexa Fluor®488 goat anti-rabbit antibodies.
Cerebellar granule neurons (CGN) were prepared from postnatal day seven Wistar rats largely as previously described (Neiiendam et al, (2004) J. Neurochem. 91(4):920-35). Cerebellar tissue was dissected in modified Krebs-Ringer solution kept on ice, and treated as described for the hippocampal neurons above. All cell cultures were incubated at 37° C. in a humidified atmosphere containing 5% CO2. All animals were handled in accordance with the national guidelines for animal welfare.
Dissociated cells were plated at a density of 10,000 cells/cm^2 on uncoated 8-well permanox Lab-Tek chamber slides in Neurobasal medium supplemented with 0.4% (w/v) bovine serum albumin (BSA; Sigma-Aldrich), 2% (v/v) B27 Neurobasal supplement, 1% (v/v) glutamax, 100 U/ml penicillin, 100 μg/ml streptomycin and 2% 1 M HEPES (all from Gibco, BRL). Peptide solutions without or with inhibitors of various signal transduction pathways were added to a total volume of 300 μl/cm^2, and the slides were incubated at 37° C. After 24 hours, the neurons were fixed with 4% (v/v) formaldehyde for 20 minutes and thereafter immunostained using primary rabbit antibodies against GAP-43 and Alexa Fluor secondary goat anti-rabbit antibodies. Images of at least 200 neurons for each group in each individual experiment were obtained systematically by using computer assisted fluorescence microscopy as previously described (Ronn et al., 2000 op. cit.). Briefly, a Nikon Diaphot inverted microscope with a Nikon Plan 20× objective (Nikon, Tokyo, Japan) coupled to a video camera (Grundig Electronics, Germany) was used for recordings. The same software package as described above for the dopaminergic neurite outgrowth assay was used to process the recorded images.

[4] = tested on: rats; experiment: Social Recognition Test (SRT); type: in vivo, rat; conditions: subcutaneous 4 mg/kg; 1 h and 24 h after administration; paired t-test
Experimental: Results from 8-9 animals expressed as a percentage±SEM. Paired t-test (*P<0.05 and ***P<0.001); B Time spent with social investigation at first meeting (T1) and second meeting (T2) 24 h after peptide/vehicle administration. Results from 9 animals expressed as a percentage±SEM. Paired t-test (*P<0.05).
The animals were evaluated using the SRT, 1 hour and 24 hours after subcutaneous injection of the peptide or vehicle.
Habituation session: On the day before the social recognition test (SRT), one habituation session was performed under similar conditions as the test session for adaptation to the experimental room, time when the test was performed, test cage, and contact with juvenile rats (a different juvenile was used during habituation session and social recognition test). The inter-trial interval for the habituation session was of 1 hour.
Experimental session: Each experimental session consisted of an initial and a test trial separated by an inter-trial (retention) interval of 2 hours.
Initial trial. Adult animals were individually housed 1 hour before testing in the test cage. For testing, a juvenile was placed into the cage and the social investigation by the adult rat was measured cumulatively for 4 min. Sniffing and grooming of body parts, anogenital sniffing and close following were scored. […]

[5] = tested on: adult male Wistar rats; experiment: Contextual Fear Conditioning Test (CFC); type: in vivo, rat; conditions: peptide injected immediately after training
Experimental: The rats were handled for 120 seconds every day for 3 days preceding the first day of the experiment. On day 1 (training), the rats received a 1-second shock (unconditioned stimuli) each minute for two minutes. Animals were injected immediately after training with 5 μl EFL, ABL, CDL or control peptide, or the vehicle. Each treatment group consisted of 11-14 rats. In total, […] animals were evaluated. […] Each rat was rated as either “freezing” or “active”, every 2 seconds, using a time-sampling procedure.

[6] = tested on: rat cerebellar granular neurons; experiment: Survival assay of cerebellar granule neurons (apoptosis induced by low KCl); type: cell-based; conditions: for survival of CGN in culture: peptides as dendrimers (CDLd, EFLd, ABLd), apoptosis induced by 5 mM KCl, two days; for survival effect compared with the C3 peptide and GDNF: peptides as dendrimers, FIG. 2A
Experimental: The effect of the peptides is compared to the effect of glia-derived neurotrophic factor (GDNF) and dendrimeric form of the C3 peptide (C3d). […] Paired student's t-test.
Primary cultures of CGN were plated at a density of 100,000 cells/cm^2 on poly-L-lysine coated 8-well permanox slides in Neurobasal-A medium (Gibco, BRL) supplemented with 2% (v/v) B27, 0.5% (v/v) glutamax, 100 U/ml penicillin, 100 μg/ml streptomycin and KCl, making the final concentration of KCl in the medium 40 mM. 24 hours after plating, cytosine-β-D-arabinofuranoside (Ara-C; Sigma-Aldrich) was added to a final concentration of 10 μM to avoid proliferation of glial cells, after which the neurons were allowed to differentiate for further six days at 37° C. Apoptotic cell death was induced by washing twice and changing the medium to Basal Medium Eagle (BME; Gibco BRL) supplemented with 1% (v/v) glutamine, 100 U/ml penicillin and 100 μg/ml streptomycin, 3.5 g D-glucose/l and 1% (v/v) sodium pyruvate (Gibco BRL) together with various concentrations of peptide. Thereby the concentration of potassium in the cultures was reduced to 5 mM KCl. Two days after induction of apoptosis, the cells were fixed with 4% formaldehyde and stained with Hoechst 33258 as described for the survival assay employing hippocampal neurons.
The assay is performed as described by D'Mello et al., (1993) (Proc Natl Acad Sci U S A. 90:10989-93).

[7] = tested on day 8 after conditioning, placebo/control 32%

effect on Caspase-3-like activity compared with high KCl (40 mM) [1]	direct binding to FGFR (SPR) [2]	Molecule	apoptosis-associated Caspase-3-like activity [1]	stimulation of neurite outgrowth [3]	difference between T1 and T2 of the same animal (presence of social memory) [4]	time of freezing ([5]; tested on day 1 after conditioning, placebo/control 40.0%)	time of freezing [5, 7]	survival of CGN in culture [6]	survival effect compared with the C3 peptide and GDNF [6]	effect of FGFR inhibitor on neurite outgrowth stimulated by EFL [3]	effect of FGFR inhibitor on neurite outgrowth stimulated by EFL ([3]; listed as SU5402)
comparable	capable of direct binding	TIMGLKPETRYAVR (TIMGLKPETRTYAVR; EFL peptide, fragment of NCAM F3,1) [E strand-loop-F strand fragment of NCAM F3, 1, used as positive control]	inhibit	strong stimulators; also recorded: stimulate neurite outgrowth	significant differences between T1 and T2	approximately 50.3%	42.5%	significantly promote survival	higher	–	–
–	–	Cc1c[nH]c(/C=C2\C(=O)Nc3ccccc32)c1CCC(=O)O [SU 5402]	–	–	–	–	–	–	–	abolished	inhibited
comparable	capable of direct binding	KAEWKSLGEEAWHSK (CDL peptide, fragment of NCAM F3,1) [C strand-loop-D strand fragment of NCAM F3, 1 module]	inhibit	strong stimulators; also recorded: stimulate neurite outgrowth	significant differences between T1 and T2	–	42.5%	significantly promote survival	higher	–	–
–	capable of direct binding	SIDRVEPYSSTAQVQFD (ABL peptide, fragment of NCAM F3,1) [A strand-loop-B strand fragment of NCAM F3, 1 module]	–	inactive	–	–	–	does not influence survival	–	–	–
